Source: patent US9770481B2, “Inhibitors of NOX1” (UNIVERSITY OF PITTSBURGH—OF THE COMMONWEALTH SYSTEM OF …, priority 2011, dated 2017)
Ends that are not written are not given here.

Columns and labels:
Nox1-YFP = experiment: Image cross correlation spectroscopy (ICCS) of R-NoxA1ds and Nox1-YFP; format: binding; conditions: ICCS, 100 images 0.05 s apart
Method: An ELISA of Nox1:NoxA1ds interaction was performed as follows. Neutravidin coated plates were incubated with biotin-tagged NoxA1ds (Biotin-NoxA1ds) or biotin-tagged SCRMB (Biotin-SCRMB) before addition of cell membranes prepared from cells transfected with Nox1 (Nox1 membrane) or transfected with an empty vector (COS22 membrane). Bound Nox1 was detected through a FITC conjugated secondary antibody (αRabbit Ab Sigma F9887) bound to the Nox1 primary antibody (rabbit αNox1 Ab (SC-25545, Santa Cruz Biotechnology)). FITC fluorescence was expressed as binding as % COS22 membranes on each experimental day. […] To further confirm the association, image cross correlation spectroscopy (ICCS) was used to determine patterns in signal fluctuation between rhodamine-labeled NoxA1ds (R-NoxA1ds) and Nox1-YFP though a sequence of 100 images 0.05 s apart. Correlation and cross-correlation was calculated using an ImageJ plugin.

Nox1 = target: T1, Nox1 (Homo sapiens, UniProt Q9Y5S8); experiment: O2- production by COS22 cells transfected with Nox1 (cytochrome c reduction); format: cell-based; conditions: increasing concentrations
T1 construct: expressed in transfected cells; host or cells: COS22 (monkey kidney COS cells stably expressing human p22phox)
T1 sequence (Q9Y5S8 1-564): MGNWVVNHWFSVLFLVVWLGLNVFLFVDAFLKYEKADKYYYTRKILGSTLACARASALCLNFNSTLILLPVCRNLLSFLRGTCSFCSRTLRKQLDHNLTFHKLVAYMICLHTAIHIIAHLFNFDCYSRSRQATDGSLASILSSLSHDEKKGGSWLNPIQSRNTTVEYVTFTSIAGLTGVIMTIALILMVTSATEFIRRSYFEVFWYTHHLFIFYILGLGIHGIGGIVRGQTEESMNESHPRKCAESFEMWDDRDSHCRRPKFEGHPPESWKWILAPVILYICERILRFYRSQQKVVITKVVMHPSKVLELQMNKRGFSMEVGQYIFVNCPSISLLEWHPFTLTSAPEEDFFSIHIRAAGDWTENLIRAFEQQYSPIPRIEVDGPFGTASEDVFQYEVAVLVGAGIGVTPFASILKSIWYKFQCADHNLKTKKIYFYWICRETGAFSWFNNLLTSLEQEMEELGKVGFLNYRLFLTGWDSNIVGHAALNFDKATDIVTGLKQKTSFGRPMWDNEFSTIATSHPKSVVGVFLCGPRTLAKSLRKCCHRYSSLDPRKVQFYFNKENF
T1 sequence (P13498 1-195 partner): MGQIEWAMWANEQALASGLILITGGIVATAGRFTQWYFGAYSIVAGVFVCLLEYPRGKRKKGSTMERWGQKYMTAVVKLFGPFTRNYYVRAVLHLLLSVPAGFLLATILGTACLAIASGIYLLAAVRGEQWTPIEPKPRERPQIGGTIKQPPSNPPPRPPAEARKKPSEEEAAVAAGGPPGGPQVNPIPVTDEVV
Method: Experiments were performed to test the effect of NoxA1ds on O2^− production by Nox1. COS22 is a monkey kidney COST cell line expressing transgenic human p22phox and was produced by stable transfection of the full-length p22phox cDNA into parental COST wild-type cells. COS22 cells were transfected with Nox1 to express the Nox1 enzyme and were then treated with either NoxA1ds or its scrambled control (SCRMB). Production of O2^− was calculated by monitoring the reduction of cytochrome c for 15 minutes post NADPH addition and subtracting baseline cytochrome c reduction occurring in the presence of SOD.

[1] = target: T2, interaction between Nox1 and NoxA1 (Homo sapiens, UniProt Q9Y5S8); experiment: FRET between Nox1-YFP and NoxA1-CFP in transfected COS22 cells; format: cell-based; conditions: 10 μM, one hour prior to imaging
T2 construct: expressed in transfected cells; host or cells: COS22
T2 sequence (Q9Y5S8 1-564): T1 sequence (Q9Y5S8 1-564)
T2 sequence (P13498 2-195 partner limits assumed): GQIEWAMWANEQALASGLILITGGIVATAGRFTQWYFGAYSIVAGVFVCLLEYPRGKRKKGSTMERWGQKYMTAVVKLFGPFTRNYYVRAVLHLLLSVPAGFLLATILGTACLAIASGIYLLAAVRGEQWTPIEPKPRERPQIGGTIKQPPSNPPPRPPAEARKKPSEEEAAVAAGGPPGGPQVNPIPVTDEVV
Method: FRET (fluorescence resonance energy transfer) studies were performed to study the effect of NoxA1ds on the interaction between Nox1 and NoxA1: In particular, FRET between Nox1-YFP and NoxA1-CFP transfected COS22 cells in the presence or absence of 10 μM NoxA1ds or SCRMB was evaluated. Relative fluorescence of CFP is green while YFP is red. Traces underneath the images indicate fluorescent intensities of CFP and YFP underneath the arrow overlaid on each cell.

[2] = test system: rat aortic smooth muscle cells; experiment: Calponin and osteopontin expression in stretched rat aortic smooth muscle cells (Western blot); format: cell-based; conditions: 10 μM added every four hours; cyclic stretch 24 hrs
Method: The effect of Nox1 inhibition on the expression of certain protein markers of rat aortic smooth muscle cell contractile vs. synthetic phenotypes was evaluated. Cells were subjected to 24 hrs of cyclic stretch (10%, 1 Hz) with 10 μM NoxA1ds or SCRMB control being added every four hours. […] Calponin expression during stretch was rescued by the addition of 10 μM NoxA1ds, yet was unaffected by the addition of 10 μM scrambled peptide (SCRMB). A representative Western blot is shown below the graph (FIG. 9B). Osteopontin (OPN, a marker of the […] phenotype), expression increased after 24 hrs of stretch.

[3] = test system: human pulmonary artery endothelial cells; experiment: Hypoxia-induced superoxide production by human pulmonary artery endothelial cells; format: cell-based
Method: Experiments were also performed to evaluate the effect of NoxA1ds on hypoxia-induced superoxide production by human pulmonary artery endothelial cells.

[4] = test system: HT-29 colon adenocarcinoma cells; experiment: O2- production by HT-29 cells (SOD inhibitable reduction of cytochrome c); format: cell-based; conditions: increasing doses

Row | Substance | Fractional binding of Nox1-YFP and R-NoxA1ds (Nox1-YFP) | Inhibition of Nox1-derived O2- production (Nox1) | CFP fluorescence after photobleaching of Nox1-YFP (FRET) [1] | Calponin expression during stretch [2] | Osteopontin (OPN) expression during stretch [2] | O2- production under hypoxia ([3]; hypoxia 1.0% O2, 24 hrs) | O2- production under normoxic conditions ([3]; normoxia) | Inhibition of O2- production by HT-29 cells [4]
1 | R-NoxA1ds: rhodamine-labeled NoxA1ds (EPVDALGKAKV-NH2; also: rhodamine label, position not given here) | ~1.0 |  |  |  |  |  |  | 
2 | SCRMB: inactive, scrambled version of NoxA1ds (negative control) (H-LVKGPDAEKVA-NH2) [reference compound] |  | did not inhibit | resulted in a concomitant increase in CFP fluorescence | unaffected | unaffected | unaffected | negligible effect | did not inhibit
